Test results from patent publication US9745267B2, “Compounds as modulators of RORC” (Boehringer Ingelheim International GmbH, priority 2013, dated 2017).

molecular target: T1, RORγt (hRORC LBD) (Homo sapiens, UniProt P51449); assay: RGA Assay: nuclear receptor transactivation assay, RORγt transactivation of a luciferase reporter; assay type: cell-based; details: transiently transfected HEK 293 cells, Gal4DBD hRORC LBD, 20-24 hours incubation
T1 construct: expressed in transfected cells; host or cells: HEK 293 (transient cotransfection with pGL4.3 luc2P/GAL4UAS/Hygro reporter)
T1 sequence (P51449 269-508 limits assumed): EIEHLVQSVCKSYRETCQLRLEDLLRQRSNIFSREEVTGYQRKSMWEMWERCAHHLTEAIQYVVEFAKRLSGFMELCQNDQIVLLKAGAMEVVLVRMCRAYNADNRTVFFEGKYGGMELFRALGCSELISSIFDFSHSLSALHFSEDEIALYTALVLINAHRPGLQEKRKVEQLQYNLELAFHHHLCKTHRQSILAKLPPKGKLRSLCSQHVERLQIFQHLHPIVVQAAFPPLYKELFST
Protocol: A nuclear receptor transactivation assay was performed to quantitate the ability of test compounds to inhibit RORγt transactivation of a luciferase reporter. A similar assay is described in: Khan et al., Bioorganic & Medicinal Chemistry Letters 23 (2013), 532-536. The system uses transiently transfected HEK 293 cells cotransfected with two plasmids (pGL4.3, luc2P/GAL4UAS/Hygro, and pBIND, Gal4DBD hRORC LBD1-3). The positive control is co-transiently transfected with both plasmids, and the negative control contains the pGL4.3 promoter sequence. Assays were assembled in 384 well plates where transiently transfected cells and test compound at varying concentrations were incubated for 20-24 hours. The next day, assays plates are taken out and equilibrated at RT for 20-30 minutes. Bright-Glo™ Luciferase Assay System is used to detect Luciferase production. After addition of Bright GLO detection reagent, the plates were incubated at RT for 20 minutes. The plates were read on an Envision plate reader to measure luminescence signal. The RLU signal is converted to POC relative to control and blank wells.
Compound Dilution Buffer:
Bright Glo Luciferase Assay System: Promega #E2620
Thaw lysis buffer provided in kit, add 100 mL lysis buffer to substrate powder.

Row | SMILES | IC50 [nM]
1 | CNS(=O)(=O)c1ccc(CNC(=O)N2CC3(CCCC3)c3cc(-c4cccc(N5CCCC5)c4)ccc32)cc1 [Example 5] | 1600
2 | CNS(=O)(=O)c1ccc(CNC(=O)N2CC3(CCCC3)c3cc(-c4cc(S(=O)(=O)N(C)C)ccc4C)ccc32)cc1 [Example 13] | 840
3 | CNS(=O)(=O)c1ccc(CNC(=O)N2CC3(CCCC3)c3cc(-c4ccc(C#N)cc4C)ccc32)cc1 [Example 15] | 940
4 | CNS(=O)(=O)c1ccc(CNC(=O)N2CC3(CCCC3)c3cc(-c4cncnc4C(C)C)ccc32)cc1 [Example 18] | 1000
5 | CNS(=O)(=O)c1ccc(CNC(=O)N2CC3(CCCC3)c3cc(-c4cc(OC)c(OC)cc4C(=O)OC)ccc32)cc1 [Example 26] | 1400
6 | CCS(=O)(=O)c1ccc(CNC(=O)N2CC3(CCCC3)c3cc(-c4ccc(F)cc4C)ccc32)cc1 [Example 28] | 1200
7 | CNS(=O)(=O)c1ccc(CNC(=O)N2CC3(CCCC3)c3cc(-c4cc5cnn(C)c5cc4C)ccc32)cc1 [Example 29] | 720
8 | CNS(=O)(=O)c1ccc(CNC(=O)N2CC3(CCCC3)c3cc(-c4cc5c(cnn5C)cc4C)ccc32)cc1 [Example 30] | 740
9 | CNS(=O)(=O)c1ccc(CNC(=O)N2CC3(CCCC3)c3cc(-c4c(C)ccc5c4cnn5C)ccc32)cc1 [Example 32] | 750
10 | CNS(=O)(=O)c1ccc(CNC(=O)N2CC3(CCCC3)c3cc(-c4ccccc4-c4cnco4)ccc32)cc1 [Example 33] | 750
11 | CNS(=O)(=O)c1ccc(CNC(=O)N2CC3(CCCC3)c3cc(-c4cc(C(C)=O)ccc4C)ccc32)cc1 [Example 35] | 890
12 | CNS(=O)(=O)c1ccc(CNC(=O)N2CC3(CCCC3)c3cc(-c4ccc(C)cc4C#N)ccc32)cc1 [Example 39] | 1000
13 | CNS(=O)(=O)c1ccc(CNC(=O)N2CC3(CCCC3)c3cc(-c4ccc5c(cnn5C)c4C)ccc32)cc1 [Example 40] | 1100
14 | CNS(=O)(=O)c1ccc(CNC(=O)N2CC3(CCCC3)c3cc(-c4cc(C#N)ccc4C)ccc32)cc1 [Example 41] | 1100
15 | CNS(=O)(=O)c1ccc(CNC(=O)N2CC3(CCCC3)c3cc(-c4ccc(CO)cc4C)ccc32)cc1 [Example 42] | 1100
16 | CNc1ccc(-c2ccc3c(c2)C2(CCCC2)CN3C(=O)NCc2ccc(S(=O)(=O)NC)cc2)c(C)c1 [Example 44] | 1100
17 | CNS(=O)(=O)c1ccc(CNC(=O)N2CC3(CCCC3)c3cc(-c4cc(F)ccc4CC#N)ccc32)cc1 [Example 46] | 1300
18 | CNS(=O)(=O)c1ccc(CNC(=O)N2CC3(CCCC3)c3cc(-c4cccc5[nH]nc(C)c45)ccc32)cc1 [Example 47] | 1500
19 | CNS(=O)(=O)c1ccc(CNC(=O)N2CC3(CCCC3)c3cc(-c4ccc5[nH]ncc5c4C)ccc32)cc1 [Example 48] | 1600
20 | CNS(=O)(=O)c1ccc(CNC(=O)N2CC3(CCCC3)c3cc(-c4cnc(OC)cc4C)ccc32)cc1 [Example 49] | 1900
21 | CNS(=O)(=O)c1ccc(CNC(=O)N2CC3(CCCC3)c3cc(-c4ccc(NC(C)=O)cc4C)ccc32)cc1 [Example 50] | 1900
22 | CCC1(CC)CN(C(=O)NCc2ccc(S(=O)(=O)NC)cc2)c2ccc(-c3ccc(F)cc3C)cc21 [Example 52] | 1100
23 | CCC1(C)CN(C(=O)NCc2ccc(S(=O)(=O)NC)cc2)c2ccc(-c3ccc(F)cc3C)cc21 (stereo not shown) [Example 53] | 1200
24 | Cc1cc(F)ccc1-c1ccc2c(c1)C1(CCCC1)CN2C(=O)NCc1ccc(S(C)(=O)=O)cc1 [Example 54] | 1300
25 | CCC1(C)CN(C(=O)NCc2ccc(S(=O)(=O)NC)cc2)c2ccc(-c3ccc(OC)cc3C(F)(F)F)cc21 (stereo not shown) [Example 57] | 780
26 | CNS(=O)(=O)c1ccc(CNC(=O)N2CC(C)(C)c3cc(-c4ccc(OC)cc4C(F)(F)F)ccc32)cc1 [Example 58] | 880
27 | CNS(=O)(=O)c1ccc(CNC(=O)N2CC(C)(CC(C)C)c3cc(-c4ccc(F)cc4C)ccc32)cc1 (stereo not shown) [Example 59] | 1500

Next, values leading:

Row | IC50 [nM] | SMILES
28 | 840 | CNS(=O)(=O)c1ccc(CNC(=O)N2CC3(CCCC3)c3cc(-c4ccc(F)cc4C)ccc32)cc1 [Example 1]
29 | 920 | CNS(=O)(=O)c1ccc(CNC(=O)N2CC3(CCCC3)c3cc(-c4ccccc4C)ccc32)cc1 [Example 2]
30 | 1000 | CNS(=O)(=O)c1ccc(CNC(=O)N2CC3(CCCC3)c3cc(-c4cc(C)ccc4C)ccc32)cc1 [Example 3]
31 | 1500 | CNS(=O)(=O)c1ccc(CNC(=O)N2CC3(CCCC3)c3cc(-c4cccc5cccnc45)ccc32)cc1 [Example 4]
32 | 310 | CNS(=O)(=O)c1ccc(CNC(=O)N2CC3(CCCC3)c3cc(-c4ccc(OC)cc4C(F)(F)F)ccc32)cc1 [Example 6]
33 | 340 | CNS(=O)(=O)c1ccc(CNC(=O)N2CC3(CCCC3)c3cc(-c4cc(F)ccc4C(F)(F)F)ccc32)cc1 [Example 7]
34 | 420 | CNS(=O)(=O)c1ccc(CNC(=O)N2CC3(CCCC3)c3cc(-c4ccc(F)cc4C(F)(F)F)ccc32)cc1 [Example 8]
35 | 610 | CCc1ccccc1-c1ccc2c(c1)C1(CCCC1)CN2C(=O)NCc1ccc(S(=O)(=O)NC)cc1 [Example 9]
36 | 640 | CNS(=O)(=O)c1ccc(CNC(=O)N2CC3(CCCC3)c3cc(-c4ccccc4C(F)(F)F)ccc32)cc1 [Example 10]
37 | 690 | CNS(=O)(=O)c1ccc(CNC(=O)N2CC3(CCCC3)c3cc(-c4ccc(O)cc4C)ccc32)cc1 [Example 11]
38 | 780 | CCOc1ccc(-c2ccc3c(c2)C2(CCCC2)CN3C(=O)NCc2ccc(S(=O)(=O)NC)cc2)c(C)c1 [Example 12]
39 | 870 | CNS(=O)(=O)c1ccc(CNC(=O)N2CC3(CCCC3)c3cc(-c4ccc(C)cc4C)ccc32)cc1 [Example 14]
40 | 960 | CNS(=O)(=O)c1ccc(CNC(=O)N2CC3(CCCC3)c3cc(-c4cc(F)ccc4C)ccc32)cc1 [Example 16]
41 | 1000 | CNS(=O)(=O)c1ccc(CNC(=O)N2CC3(CCCC3)c3cc(-c4c(C)cccc4C)ccc32)cc1 [Example 17]
42 | 1100 | CNS(=O)(=O)c1ccc(CNC(=O)N2CC3(CCCC3)c3cc(-c4ccccc4C(=O)OC)ccc32)cc1 [Example 19]
43 | 1100 | CNS(=O)(=O)c1ccc(CNC(=O)N2CC3(CCCC3)c3cc(-c4ccccc4COC)ccc32)cc1 [Example 20]
44 | 1100 | CCOCc1ccccc1-c1ccc2c(c1)C1(CCCC1)CN2C(=O)NCc1ccc(S(=O)(=O)NC)cc1 [Example 21]

Row | IC50 [nM] | SMILES
45 | 1200 | CNS(=O)(=O)c1ccc(CNC(=O)N2CC3(CCCC3)c3cc(-c4cccc(C)c4C)ccc32)cc1 [Example 22]
46 | 1200 | CNS(=O)(=O)c1ccc(CNC(=O)N2CC3(CCCC3)c3cc(-c4ccc(OC)cc4C)ccc32)cc1 [Example 23]
47 | 1300 | CCOC(=O)c1ccccc1-c1ccc2c(c1)C1(CCCC1)CN2C(=O)NCc1ccc(S(=O)(=O)NC)cc1 [Example 24]
48 | 1300 | CNS(=O)(=O)c1ccc(CNC(=O)N2CC3(CCCC3)c3cc(-c4cnccc4C(F)(F)F)ccc32)cc1 [Example 25]
49 | 1700 | CNS(=O)(=O)c1ccc(CNC(=O)N2CC3(CCCC3)c3cc(-c4ccccc4C(C)=O)ccc32)cc1 [Example 27]
50 | 740 | CNS(=O)(=O)c1ccc(CNC(=O)N2CC3(CCCC3)c3cc(-c4ccccc4C(F)F)ccc32)cc1 [Example 31]
51 | 790 | CNS(=O)(=O)c1ccc(CNC(=O)N2CC3(CCCC3)c3cc(-c4c(F)cccc4C#N)ccc32)cc1 [Example 34]
52 | 890 | CNS(=O)(=O)c1ccc(CNC(=O)N2CC3(CCCC3)c3cc(-c4ccncc4C(F)(F)F)ccc32)cc1 [Example 36]
53 | 920 | CNS(=O)(=O)c1ccc(CNC(=O)N2CC3(CCCC3)c3cc(-c4ccc(N)cc4C(=O)OC)ccc32)cc1 [Example 37]
54 | 970 | CNS(=O)(=O)c1ccc(CNC(=O)N2CC3(CCCC3)c3cc(-c4cccc(C#N)c4C)ccc32)cc1 [Example 38]
55 | 1100 | CNS(=O)(=O)c1ccc(CNC(=O)N2CC3(CCCC3)c3cc(-c4cccc(F)c4CC#N)ccc32)cc1 [Example 43]
56 | 1200 | CNS(=O)(=O)c1ccc(CNC(=O)N2CC3(CCCC3)c3cc(-c4ccccc4CC#N)ccc32)cc1 [Example 45]
57 | 1500 | CNS(=O)(=O)c1ccc(CNC(=O)N2CC3(CCCCC3)c3cc(-c4ccc(F)cc4C)ccc32)cc1 [Example 55]
58 | 400 | CNS(=O)(=O)c1ccc(CNC(=O)N2CC3(CCCC3)c3cc(-c4ccc(O)cc4C(F)(F)F)ccc32)cc1 [Example 56]
59 | 250 | CNS(=O)(=O)c1ccc(CNC(=O)N2CC3(CCCC3)c3cc(Oc4cc(C(F)(F)F)ccc4C)ccc32)cc1 [Example 60]
60 | 730 | CNS(=O)(=O)c1ccc(CNC(=O)N2CC3(CCCC3)c3cc(Oc4cccc(OC(F)(F)F)c4)ccc32)cc1 [Example 61]
61 | 970 | CNS(=O)(=O)c1ccc(CNC(=O)N2CC3(CCCC3)c3cc(Oc4ccc(F)c(OC(F)(F)F)c4)ccc32)cc1 [Example 62]
